The text below walks through data of patent US11806363B1, “Green synthesis of silver nanoparticles using euphorbia dendroides aqueous extract” (King Faisal University, priority 2023, dated 2023).

What is called IC50 is the point on the concentration scale where inhibition reaches its midpoint.

Assay [1] concerns HCT-116 cells. Nature of the assay: MTT cytotoxicity assay, HCT-116 cells. It counts as cell-based. To be noted: Homo sapiens; HCT-116, MTT, 48 h treatment, triplicate, mean ±SD; read-out: IC50 (50% inhibition of cancer cell growth).
For assay [2], the system named is HepG2 cells. Nature of the assay: MTT cytotoxicity assay, HepG2 cells. It counts as cell-based. To be noted: Homo sapiens, 48 h treatment, triplicate, mean ±SD, read-out: IC50 (50% inhibition of cancer cell growth). (Formazan colour is commonly taken as a measure of viable cells.)

≈ marks a conversion by molar mass, not a printed value.

With `COc1cccc2c1C(=O)c1c(O)c3c(c(O)c1C2=O)C[C@@](O)(C(=O)CO)C[C@@H]3O[C@H]1C[C@H](N)[C@H](O)[C@H](C)O1` [DOX, doxorubicin], the IC50 in assay [1] was found to be 0.86 ± 0.16 µg/mL (≈ 1.58 µM); in assay [2], 0.38 ± 0.07 µg/mL (≈ 0.699 µM).
